The values below come from ChEMBL document CHEMBL3217458, “Discovery of a novel benzopyranyl compound as a potent in vitro and in vivo osteogenic agent” (Medchemcomm, 2011).

The source made the active and inactive calls. No cut-off for these calls is given here.

In series [1] the test system is C3H 10T1/2. The experiment in a line: Induction of osteogenesis in mouse C3H10T1/2 cells assessed as increase in alkaline phosphatase activity at 2 uM after 72 hrs by ALP assay. It counts as functional.
Series [2] deals with C3H 10T1/2. The experiment in a line: Induction of osteogenesis in mouse C3H10T1/2 cells assessed as increase in alkaline phosphatase activity after 72 hrs by ALP assay. The format is functional, cell-based.
Series [3] has as its system Mus musculus. The experiment in a line: Induction of osteogenesis in ovariectomized C57BL/6 mouse model assessed as reduction in trabecular space at 10 mg/kg/day, po administered 5 days per week for 4 weeks by micro-CT analysis relative to vehicle-treated control. It counts as functional, organism-based. The following applies: Trabecula.
Series [4] relates to HeLa. The experiment in a line: Cytotoxicity against human HeLa cells at 0.1 to 25 uM after 24 hrs by WST-1 assay. It counts as cell-based. On the technique in general: Tetrazolium dyes change colour on reduction, which living cells bring about.
The test system of series [5] is Mus musculus. The experiment in a line: Induction of osteogenesis in ovariectomized C57BL/6 mouse model assessed as increase in bone volume at 10 mg/kg/day, po administered 5 days per week for 4 weeks by micro-CT analysis relative to vehicle-treated control. It counts as functional, organism-based.
The test system of series [6] is C2C12. Nature of the series: Cytotoxicity against mouse C2C12 cells at 0.1 to 25 uM after 24 hrs by WST-1 assay. The format is cell-based. The conditions noted are these: c2c12, 24 h.
Series [7] is described as follows: Cytotoxicity against human CaSki cells at 0.1 to 25 uM after 24 hrs by WST-1 assay. The following applies: ca-ski. The format is cell-based.
For series [8], the system named is C3H 10T1/2. Nature of the series: Induction of osteogenesis in mouse C3H10T1/2 cells assessed as calcium deposition at 4 uM by Alizarin Red S staining-based assay. It counts as functional, cell-based.
Series [9] has as its system L6. The experiment in a line: Cytotoxicity against rat L6 cells at 0.1 to 25 uM after 24 hrs by WST-1 assay. The conditions noted are these: l6, 24 h. It counts as cell-based.
For series [10], the system named is PC-3. The experiment in a line: Cytotoxicity against human PC3 cells at 0.1 to 25 uM after 24 hrs by WST-1 assay. It counts as cell-based. The following applies: pc-3, 24 h.
In series [11] the test system is Mus musculus. The experiment in a line: Induction of osteogenesis in ovariectomized C57BL/6 mouse model assessed as increase in […] at 5 to 10 mg/kg/day, po administered 5 days per week for 4 weeks by dual-energy X-ray absorptiometry relative to vehicle-treated control. The format is functional.
The subject of series [12] is HepG2. Nature of the series: Cytotoxicity against human HepG2 cells at 0.1 to 25 uM after 24 hrs by WST-1 assay. It counts as cell-based. The following applies: hepg2, 24 h.
Series [13] relates to Mus musculus. Nature of the series: Induction of osteogenesis in ovariectomized C57BL/6 mouse model assessed as increase in trabecular number at 10 mg/kg/day, po administered 5 days per week for 4 weeks by micro-CT analysis relative to vehicle-treated control. The format is functional, organism-based. The following applies: Trabecula.
Series [14] relates to C3H 10T1/2. The experiment in a line: Activation of proto-oncogene protein Wnt/beta-catenin signaling (unknown origin) transfected in mouse C3H10T1/2 cells assessed as increase in transcriptional activity at 2 uM after 48 hrs by TOPflash luciferase reporter gene assay. It counts as cell-based. The conditions noted are these: Homo sapiens. Background: Reporter assays use an easily measured gene product as a stand-in for the process of interest.

Series [15] deals with C3H 10T1/2. Nature of the series: Induction of osteogenesis in mouse C3H10T1/2 cells using BCIP as substrate assessed as increase in alkaline phosphatase activity at 0.25 to 4 uM after 72 hrs by nitroblue tetrazolium chloride staining-based assay. The format is functional, cell-based.
For series [16], the system named is DU-145. The experiment in a line: Cytotoxicity against human DU145 cells at 0.1 to 25 uM after 24 hrs by WST-1 assay. It counts as cell-based. The following applies: du-145, 24 h.
Series [17] is described as follows: Cytotoxicity against mouse 3T3L1 cells at 0.1 to 25 uM after 24 hrs by WST-1 assay. It counts as cell-based. The following applies: 3t3-l1, 24 h.

Take `CC1(C)C=C(c2cccc(O)c2)c2ccc(O)cc2O1`: in series [1], the “fold change (FC)” value came out at 1.4.
On to `CC1(C)CC(c2ccc([N+](=O)[O-])cc2)c2cc(-c3cccc(O)c3)ccc2O1` (stereo unspecified), for which the outcome in series [2] was inactive.
As to `CC1(C)CC(c2ccc([N+](=O)[O-])cc2)c2cc(Cl)cc(-c3cccc(O)c3)c2O1` (stereo unspecified), in series [2], the outcome was inactive.
The same measure, in the same setting: the entry for `Cc1n[nH]c(C)c1C1CC(C)(C)Oc2cc(O)ccc21` (stereo unspecified) is “inactive”.
Regarding `CC1(C)C=C(c2ccc(N)cc2)c2ccc(O)cc2O1`, the “fold change (FC)” value in series [1] worked out at 3.9.
On the same count and under the same terms, the figure for `CC1(C)C=C(c2ccccc2[N+](=O)[O-])c2ccc(O)cc2O1` is 1.2; for `COc1ccc2c(c1O)OC(C)(C)C=C2c1cccc([N+](=O)[O-])c1` it is 1.5.
With `CC1(C)CC(c2cccnc2)c2ccc(O)cc2O1` (stereo unspecified), the result in [2] was inactive.
Same read-out and setting: the entry for `CC1(C)CC(c2cccs2)c2ccc(O)cc2O1` (stereo unspecified) is “inactive”.
As for `CCOC(=O)CCC1(C)C=C(c2cccc([N+](=O)[O-])c2)c2ccc(O)cc2O1` (stereo unspecified), in series [1], the “fold change (FC)” value stood at 1.4.
Still for that read-out and setting: the figure for `CC(=O)c1cccc(C2=CC(C)(C)Oc3cc(O)ccc32)c1` is 1.9.
As to `CC1(C)C=C(c2cc(Cl)cc(Cl)c2)c2ccc(O)cc2O1`, the “fold change (FC)” value in [1] is on record as 1.5.
Same read-out and setting: next, `O=[N+]([O-])c1cccc(C2=CC3(CCCC3)Oc3cc(O)ccc32)c1`: 0.6.
As for `CC1(C)CC(c2ccoc2)c2ccc(O)cc2O1` (stereo unspecified), the outcome in series [2] was inactive.
Turning to `CC1(C)C=C(c2ccc([N+](=O)[O-])cc2)c2ccc(O)cc2O1`, in series [1], the “fold change (FC)” value is on record as 3.1.
For the molecule `CC1(C)C=C(c2cccc([N+](=O)[O-])c2)c2ccc(O)cc2O1`, the outcome in series [3], in [5], in [8], in [13] and in series [14] was Active. Besides, the Activity result was “Non-toxic” in [4]; “Non-toxic” in [6]; “Non-toxic” in series [7]; “Dose-dependent effect” in series [2]; “Non-toxic” in [9]; “Non-toxic” in [10]. The Activity in [11] is 37%; in [12], “Non-toxic”; in [15], “Dose-dependent effect”; in [16] it was “Non-toxic”; in series [17], “Non-toxic”. Moreover, the “fold change (FC)” value in series [1] is reported as 6.8.
Turning to `CC1(C)C=C(c2cccc(N)c2)c2ccc(O)cc2O1`, in [1], the “fold change (FC)” value is 2.5.
Same read-out and setting: the figure for `CN(C)c1ccc(C2=CC(C)(C)Oc3cc(O)ccc32)cc1` is 0.7; for `CN(C)c1cccc(C2=CC(C)(C)Oc3cc(O)ccc32)c1` it is 1.6.
Turning to `CC1(C)CC(c2ccccc2)c2ccc(O)cc2O1` (stereo unspecified), the outcome in series [2] was inactive.
